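Assay format: 96-well plates, 48-hour exposure. GI50 = concentration required for 50% inhibition of growth.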 Active and inactive are the calls of the source. Rule as the data show it: active = GI50 up to about 1.1 µM and inactive = higher. Where a SMILES comes first, the peptide text is derived from it. [ ]: non-standard residue; d: D form. The star is where a group is joined. NMeF = CN[C@@H](Cc1ccccc1)C(=O)O; NMeV = CN[C@H](C(=O)O)C(C)C; Boc = CC(C)(C)OC(=O)*; OBn = c1ccc(CO*)cc1
Tests used:
Experiment in all cases: NCI anticancer screen, dose series, 48 h
BT-549 = test system: BT-549
COLO 205 = test system: COLO 205
EKVX = test system: EKVX
HCT-116 = test system: HCT-116
HL-60 = test system: HL-60
Hs-578T = test system: Hs-578T
KM12 = test system: KM12
LOX IMVI = test system: LOX IMVI
LXFL 529 = test system: LXFL 529
M14 = test system: M14
MCF7 = test system: MCF7
NCI-H460 = test system: NCI-H460
OVCAR-3 = test system: OVCAR-3
OVCAR-4 = test system: OVCAR-4
OVCAR-8 = test system: OVCAR-8
RPMI-8226 = test system: RPMI-8226
SNB-75 = test system: SNB-75
SR = test system: SR
T47D = test system: T47D
UACC-62 = test system: UACC-62

Structure (SMILES)	GI50 (BT-549)	GI50 (COLO 205)	GI50 (EKVX)	GI50 (HCT-116)	GI50 (HL-60)	GI50 (Hs-578T)	GI50 (KM12)	GI50 (LOX IMVI)	GI50 (LXFL 529)	GI50 (M14)	GI50 (MCF7)	GI50 (NCI-H460)	GI50 (OVCAR-3)	GI50 (OVCAR-4)	GI50 (OVCAR-8)	GI50 (RPMI-8226)	GI50 (SNB-75)	GI50 (SR)	GI50 (T47D)	GI50 (UACC-62)
O=C(CCN1CCCCC1)Nc1ccc2c(c1)C(=O)c1ccc(NC(=O)CCN3CCCCC3)cc1C2=O	14.6 µM (inactive)	10.9 µM (inactive)	15.6 µM (inactive)	1.71 µM (inactive)	2.79 µM (inactive)	11.7 µM (inactive)	1.62 µM (inactive)	1.75 µM (inactive)	1.88 µM (inactive)	5.73 µM (inactive)	2.31 µM (inactive)	1.57 µM (inactive)	8.11 µM (inactive)	3.5 µM (inactive)	5.57 µM (inactive)	4.43 µM (inactive)	3.82 µM (inactive)	2.47 µM (inactive)	16.5 µM (inactive)	19.9 µM (inactive)
CN(C)C(=S)NC(=S)Nc1ccc2ccccc2c1	16 µM (inactive)	13.7 µM (inactive)	14.1 µM (inactive)	6.65 µM (inactive)	5.69 µM (inactive)	33.1 µM (inactive)	12.4 µM (inactive)	6.64 µM (inactive)	2.07 µM (inactive)	12.7 µM (inactive)	10.3 µM (inactive)	3.94 µM (inactive)	14.4 µM (inactive)	24.7 µM (inactive)	9.64 µM (inactive)	5.56 µM (inactive)	24.3 µM (inactive)	3.97 µM (inactive)	9.55 µM (inactive)	2.14 µM (inactive)
CN(CCS(=O)(=O)N1C(=O)C2CCCN2C(=O)[C@@H]1Cc1ccccc1)C(=O)OCc1ccccc1 (some centres not stated)		58.5 µM (inactive)	30.9 µM (inactive)	39.9 µM (inactive)	10.7 µM (inactive)		48.2 µM (inactive)	58.3 µM (inactive)	45.4 µM (inactive)	45.6 µM (inactive)		47.4 µM (inactive)	32.6 µM (inactive)	68.4 µM (inactive)	70.3 µM (inactive)	15.1 µM (inactive)	33.4 µM (inactive)	40 µM (inactive)		38.8 µM (inactive)
CN(C)CCN(C)CCC(=O)/C=C/c1ccccc1		18.7 µM (inactive)	32.1 µM (inactive)	17.1 µM (inactive)	16.4 µM (inactive)		20.5 µM (inactive)	12.6 µM (inactive)	17.7 µM (inactive)	20.9 µM (inactive)		> 100 µM (inactive)	27.7 µM (inactive)	38.2 µM (inactive)	21.2 µM (inactive)	2.16 µM (inactive)	> 41.5 µM (inactive)	7 µM (inactive)		25.4 µM (inactive)
O=C(COc1ccc(Br)cc1Br)N1N=C(c2ccc([N+](=O)[O-])o2)CC1(O)c1ccccc1 (configuration not stated)		2.7 µM (inactive)	2.79 µM (inactive)	11.9 µM (inactive)	3.12 µM (inactive)		17.4 µM (inactive)	5.47 µM (inactive)	8.73 µM (inactive)	10.1 µM (inactive)		6.24 µM (inactive)	3.93 µM (inactive)	17 µM (inactive)	9.89 µM (inactive)	2.11 µM (inactive)	14.1 µM (inactive)	2.12 µM (inactive)		4.95 µM (inactive)
Cc1cc(N(CCC#N)CCC#N)ccc1/C=C(\NC(=O)/C=C/c1ccccc1)C(=O)Nc1ccc(Cl)cc1	> 100 µM (inactive)	1.07 µM (active)	> 80.2 µM (inactive)	5.41 µM (inactive)	5.6 µM (inactive)	> 100 µM (inactive)	3.74 µM (inactive)	1.14 µM (inactive)	0.0991 µM (active)	9.16 µM (inactive)	27 µM (inactive)	52.4 µM (inactive)	50.8 µM (inactive)	30.5 µM (inactive)	> 100 µM (inactive)	10 µM (inactive)	> 52.4 µM (inactive)		> 100 µM (inactive)	0.577 µM (active)
CC(=O)OC(C)(C)[C@@H]1CC[C@]2(C)/C=C/[C@H](C)C[C@@H](O)C3=C(C)C[C@@H](O3)C12 (some centres not stated)		> 100 µM (inactive)	> 100 µM (inactive)	> 100 µM (inactive)	> 100 µM (inactive)		> 100 µM (inactive)	> 100 µM (inactive)	> 100 µM (inactive)	> 100 µM (inactive)		> 100 µM (inactive)	> 100 µM (inactive)	> 100 µM (inactive)	> 100 µM (inactive)	> 100 µM (inactive)	> 100 µM (inactive)	> 100 µM (inactive)		> 100 µM (inactive)
CC(C)[C@@H](C(=O)N1CCC[C@H]1C(=O)OCc1ccccc1)N(C)C(=O)[C@H](C(C)C)N(C)C(=O)[C@H](Cc1ccccc1)N(C)C(=O)[C@H](NC(=O)OC(C)(C)C)C(C)C (Boc-[dV][NMeF][NMeV][NMeV]P-OBn)	> 50 µM (inactive)	> 50 µM (inactive)	> 50 µM (inactive)	> 50 µM (inactive)	> 50 µM (inactive)	> 50 µM (inactive)	> 50 µM (inactive)	> 50 µM (inactive)	22.2 µM (inactive)	> 50 µM (inactive)	> 50 µM (inactive)	> 50 µM (inactive)	> 50 µM (inactive)	> 50 µM (inactive)		> 50 µM (inactive)	> 50 µM (inactive)	18.6 µM (inactive)	> 50 µM (inactive)	> 50 µM (inactive)
